Assay results taken from patent publication US20260224571A1, “AZACYCLOALKANE COMPOUND AND PHARMACEUTICAL COMPOSITION, AND USE THEREOF” (Prime Gene Therapeutics Co., Ltd., priority 2023, published 2026).

Experiments:
ROCK2 = ROCK2 (Homo sapiens, UniProt O75116); assay: ROCK2 kinase enzymatic activity (HTRF, STK2 substrate); type: biochemical; conditions: ROCK2 kinase reacted at room temperature for 30 minutes
Source text: (§1) The kinase activity data was expressed by comparing the kinase activity of the test compound and that of the blank group (containing only DMSO), and the IC50 value was obtained by curve fitting using Prism software (GraphPad7.0).

ROCK1 = ROCK1 (Homo sapiens, UniProt Q13464); assay: ROCK1 kinase enzymatic activity (HTRF, STK2 substrate); type: biochemical; conditions: ROCK1 kinase reacted at room temperature for 20 minutes
Source text: as §1

ROCK2, sequence (O75116 whole entry): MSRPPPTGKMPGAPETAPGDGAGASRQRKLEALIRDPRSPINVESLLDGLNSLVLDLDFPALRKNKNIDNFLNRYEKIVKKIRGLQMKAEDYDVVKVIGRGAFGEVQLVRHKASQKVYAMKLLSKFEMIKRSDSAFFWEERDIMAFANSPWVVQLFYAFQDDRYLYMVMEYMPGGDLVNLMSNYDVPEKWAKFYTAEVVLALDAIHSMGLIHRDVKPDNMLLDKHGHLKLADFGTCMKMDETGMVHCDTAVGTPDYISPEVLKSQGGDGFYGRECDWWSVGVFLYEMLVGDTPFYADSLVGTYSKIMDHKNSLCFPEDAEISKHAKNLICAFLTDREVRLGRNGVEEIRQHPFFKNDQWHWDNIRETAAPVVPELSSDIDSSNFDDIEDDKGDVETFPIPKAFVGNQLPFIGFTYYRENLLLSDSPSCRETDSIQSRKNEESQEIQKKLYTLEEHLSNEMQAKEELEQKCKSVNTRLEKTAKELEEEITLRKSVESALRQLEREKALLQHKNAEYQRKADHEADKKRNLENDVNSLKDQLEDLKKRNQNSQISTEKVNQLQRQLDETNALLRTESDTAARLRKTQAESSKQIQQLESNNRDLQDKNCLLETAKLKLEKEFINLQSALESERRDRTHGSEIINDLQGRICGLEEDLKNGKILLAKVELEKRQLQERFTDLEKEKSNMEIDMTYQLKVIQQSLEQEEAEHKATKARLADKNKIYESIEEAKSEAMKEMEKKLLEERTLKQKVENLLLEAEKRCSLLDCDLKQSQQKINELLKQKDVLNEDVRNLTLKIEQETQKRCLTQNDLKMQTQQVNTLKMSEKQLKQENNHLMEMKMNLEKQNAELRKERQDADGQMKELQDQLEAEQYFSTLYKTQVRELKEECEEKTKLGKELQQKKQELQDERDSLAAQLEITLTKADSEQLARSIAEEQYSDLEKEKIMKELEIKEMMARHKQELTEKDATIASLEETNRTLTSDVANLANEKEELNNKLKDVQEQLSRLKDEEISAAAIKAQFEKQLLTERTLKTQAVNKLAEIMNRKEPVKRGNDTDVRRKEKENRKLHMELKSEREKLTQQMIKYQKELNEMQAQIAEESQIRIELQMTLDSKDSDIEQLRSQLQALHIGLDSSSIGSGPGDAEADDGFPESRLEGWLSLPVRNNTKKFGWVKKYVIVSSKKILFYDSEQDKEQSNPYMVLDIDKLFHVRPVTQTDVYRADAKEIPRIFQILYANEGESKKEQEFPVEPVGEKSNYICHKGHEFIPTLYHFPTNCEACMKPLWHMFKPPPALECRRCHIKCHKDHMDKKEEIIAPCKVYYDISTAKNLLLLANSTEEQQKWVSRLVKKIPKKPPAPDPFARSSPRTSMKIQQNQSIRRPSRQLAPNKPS
ROCK1, sequence (Q13464 whole entry): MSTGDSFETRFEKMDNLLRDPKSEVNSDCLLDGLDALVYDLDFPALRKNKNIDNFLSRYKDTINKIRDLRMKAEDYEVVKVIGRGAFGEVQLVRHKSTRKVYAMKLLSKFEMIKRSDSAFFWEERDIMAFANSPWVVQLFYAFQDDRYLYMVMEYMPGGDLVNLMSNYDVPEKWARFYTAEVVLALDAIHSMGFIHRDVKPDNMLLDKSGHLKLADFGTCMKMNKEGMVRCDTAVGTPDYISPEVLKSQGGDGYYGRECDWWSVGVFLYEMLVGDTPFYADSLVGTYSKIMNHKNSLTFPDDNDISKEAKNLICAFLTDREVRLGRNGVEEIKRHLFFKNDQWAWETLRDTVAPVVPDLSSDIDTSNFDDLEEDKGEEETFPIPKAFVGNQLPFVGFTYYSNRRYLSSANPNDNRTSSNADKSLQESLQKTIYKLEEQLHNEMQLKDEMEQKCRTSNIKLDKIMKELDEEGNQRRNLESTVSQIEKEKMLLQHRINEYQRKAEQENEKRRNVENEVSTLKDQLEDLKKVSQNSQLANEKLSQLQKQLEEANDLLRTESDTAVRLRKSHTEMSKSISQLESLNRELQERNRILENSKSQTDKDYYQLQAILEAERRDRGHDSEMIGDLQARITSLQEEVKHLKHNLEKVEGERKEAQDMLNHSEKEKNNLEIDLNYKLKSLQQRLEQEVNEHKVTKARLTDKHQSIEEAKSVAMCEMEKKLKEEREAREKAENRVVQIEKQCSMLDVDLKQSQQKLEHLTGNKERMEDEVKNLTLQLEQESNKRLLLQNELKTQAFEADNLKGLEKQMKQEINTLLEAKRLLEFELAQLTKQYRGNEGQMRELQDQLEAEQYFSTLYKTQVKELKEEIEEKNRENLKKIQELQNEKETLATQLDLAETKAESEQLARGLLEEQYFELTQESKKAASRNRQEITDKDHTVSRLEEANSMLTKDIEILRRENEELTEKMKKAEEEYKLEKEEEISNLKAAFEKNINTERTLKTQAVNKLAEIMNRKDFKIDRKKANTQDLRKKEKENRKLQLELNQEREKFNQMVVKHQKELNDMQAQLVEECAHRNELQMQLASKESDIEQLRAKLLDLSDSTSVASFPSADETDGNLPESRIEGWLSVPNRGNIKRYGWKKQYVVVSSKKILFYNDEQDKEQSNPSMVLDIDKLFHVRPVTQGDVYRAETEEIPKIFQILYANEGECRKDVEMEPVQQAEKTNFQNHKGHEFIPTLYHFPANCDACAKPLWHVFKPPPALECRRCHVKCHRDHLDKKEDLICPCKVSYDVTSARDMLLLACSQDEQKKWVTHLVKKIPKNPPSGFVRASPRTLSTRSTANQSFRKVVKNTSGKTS

IC50 (ROCK2) [nM]	IC50 (ROCK1) [nM]	SMILES
> 100	> 100	CS(=O)(=O)N1CC(CC#N)(n2cc(-c3ncnc(NCC4CCOCC4)n3)c(N)n2)C1 [Example 73]
> 100	> 100	CCS(=O)(=O)N1CC(CC#N)(n2cc(-c3ncnc4[nH]ccc34)c(C(N)=O)n2)C1 [Example 66, 1-(3-(cyanomethyl)-1-(ethylsulfonyl)azetidine-3-yl)-4-(7H-pyrrolo[2,3-d]pyrimidin-4-yl)-1H-pyrazol-3-formamide]
< 50	< 50	N#CCC1(n2cc(-c3ncnc4[nH]ccc34)c(N)n2)CN(C(=O)NCCO)C1 [Example 17, 3-(3-amino-4-(7H-pyrrolo[2,3-d]pyrimidin-4-yl)-1H-pyrazol-1-yl)-3-(cyanomethyl)-N-(2-hydroxyethyl)azetidine-1-formamide]
> 100	> 100	CCS(=O)(=O)N1CC(CC#N)(n2cc(-c3cc(-c4cnn(C)c4)cn4ncnc34)c(N)n2)C1 [Example 81]
< 10	< 5	N#CCC(=O)N1CC(CC#N)(n2cc(-c3ncnc4[nH]ccc34)c(N)n2)C1 [Example 21, 3-(3-(3-amino-4-(7H-pyrrolo[2,3-d]pyrimidin-4-yl)-1H-pyrazol-1-yl)-3-(cyanomethyl)azetidine-1-yl]-3-oxopropionitrile]
< 10	< 10	N#CCC1(n2cc(-c3ncnc4[nH]ccc34)c(N)n2)CN(C(=O)C(F)(F)C(F)(F)F)C1 [Example 27]
< 10	< 10	N#CCC1(n2cc(-c3ncnc4[nH]ccc34)c(N)n2)CN(S(=O)(=O)CC(=O)NN)C1 [Example 9]
< 10	< 5	N#CCC1(n2cc(-c3ncnc4[nH]ccc34)c(N)n2)CN(C(=O)CC(F)(F)F)C1 [Example 30]
< 50	< 50	N#CCC1(n2cc(-c3ncnc4[nH]ccc34)c(N)n2)CN(C(=O)N2CC(F)(F)C2)C1 [Example 13, 2-(3-(3-amino-4-(7H-pyrrolo[2,3-d]pyrimidin-4-yl)-1H-pyrazol-1-yl)-1-(3,3-difluoroazetidine-1-carbonyl)azetidin-3-yl)acetonitrile]
> 100	< 50	CCS(=O)(=O)N1CC(CC#N)(n2cc(-c3ncnc4[nH]ccc34)c(O)n2)C1 [Example 56, 2-(1-(ethylsulfonyl)-3-(3-hydroxy-4-(7H-pyrrolo[2,3-d]pyrimidin-4-yl)-1H-pyrazol-1-yl)azetidine-3-yl)acetonitrile]
> 100	> 100	CC(C)S(=O)(=O)N1CC(CC#N)(n2cc(-c3ncnc4[nH]ccc34)c(C(N)=O)n2)C1 [Example 68, 1-(3-(cyanomethyl)-1-(isopropylsulfonyl)azetidine-3-yl)-4-(7H-pyrrolo[2,3-d]pyrimidin-4-yl)-1H-pyrazol-3-formamide]
> 100	> 100	CCS(=O)(=O)N1CC(CC#N)(n2cc(-c3cc(NC)nc4ccnn34)c(N)n2)C1 [Example 85, 2-(3-(3-amino-4-(5-(methylamino)pyrazolo[1,5-a]pyrimidin-7-yl)-1H-pyrazol-1-yl)-1-(ethylsulfonyl)azetidine-3-yl)acetonitrile]
< 50	< 50	N#CCC1(n2cc(-c3ncnc4[nH]ccc34)c(N)n2)CN(C(=O)NC2CC2)C1 [Example 12, 3-(3-amino-4-(7H-pyrrolo[2,3-d]pyrimidin-4-yl)-1H-pyrazol-1-yl)-3-(cyanomethyl)-N-cyclopropylazetidine-1-formamide]
< 50	< 50	C[C@H](NC(=O)N1CC(CC#N)(n2cc(-c3ncnc4[nH]ccc34)c(N)n2)C1)C(F)(F)F [Example 16, (S)-3-(3-amino-4-(7H-pyrrolo[2,3-d]pyrimidin-4-yl)-1H-pyrazol-1-yl)-3-(cyanomethyl)-N-(1,1,1-trifluoropropan-2-yl)azetidine-1-formamide]
> 100	< 50	COc1nn(C2(CC#N)CN(S(=O)(=O)C(C)C)C2)cc1-c1ncnc2[nH]ccc12 [Example 59, 2-(1-(isopropylsulfonyl)-3-(3-methoxy-4-(7H-pyrrolo[2,3-d]pyrimidin-4-yl)-1H-pyrazol-1-yl)azetidine-3-yl)acetonitrile]
< 10	< 10	N#CCC1(n2cc(-c3ncnc4[nH]ccc34)c(N)n2)CN(C(=O)C2(C#N)CC2)C1 [Example 26, 1-(3-(3-amino-4-(7H-pyrrolo[2,3-d]pyrimidin-4-yl)-1H-pyrazol-1-yl)-3-(cyanomethyl)azetidine-1-carbonyl)cyclopropane-1-nitrile]

IC50 (ROCK2) [nM]	IC50 (ROCK1) [nM]	SMILES
> 100	> 100	CN1CCC(Nc2ncnc(-c3cn(C4(CC#N)CN(S(C)(=O)=O)C4)nc3N)n2)CC1 [Example 71, 2-(3-(3-amino-4-(4-((1-methylpiperidin-4-yl)amino)-1,3,5-triazin-2-yl)-1H-pyrazol-1-yl)-1-(methylsulfonyl)azetidine-3-yl)acetonitrile]
> 100	> 100	CNc1cc(-c2cn(C3(CC#N)CN(S(C)(=O)=O)C3)nc2N)ncn1 [Example 77, 2-(3-(3-amino-4-(6-(methylamino)pyrimidin-4-yl)-1H-pyrazol-1-yl)-1-(methylsulfonyl)azetidine-3-yl)acetonitrile]
< 5	< 5	CS(=N)(=O)N1CC(CC#N)(n2cc(-c3ncnc4[nH]ccc34)c(N)n2)C1 (stereo not shown) [Example 36, 2-(3-(3-amino-4-(7H-pyrrolo[2,3-d]pyrimidin-4-yl)-1H-pyrazol-1-yl)-1-(S-methysulfonylimino)azetidine-3-yl)acetonitrile]
> 100	> 100	CCS(=O)(=O)N1CC(CC#N)(n2cc(-c3cc(Cl)nc4ccnn34)c(N)n2)C1 [Example 84, 2-(3-(3-amino-4-(5-chloropyrazolo[1,5-a]pyrimidin-7-yl)-1H-pyrazol-1-yl)-1-(ethylsulfonyl)azetidine-3-yl)acetonitrile]
> 100	> 100	CS(=O)(=O)N1CC(CC#N)(n2cc(-c3ccnc(NCCO)n3)c(N)n2)C1 [Example 78]
< 10	< 10	N#CCN1CC(CC#N)(n2cc(-c3ncnc4[nH]ccc34)c(N)n2)C1 [Example 29, 2,2′-(3-(3-amino-4-(7H-pyrrolo[2,3-d]pyrimidin-4-yl)-1H-pyrazol-1-yl)azetidine-1,3-diyl)diacetonitrile]
< 10	< 10	COC(=O)CNS(=O)(=O)N1CC(CC#N)(n2cc(-c3ncnc4[nH]ccc34)c(N)n2)C1 [Example 53, methyl (3-(3-amino-4-(7H-pyrrolo[2,3-d]pyrimidin-4-yl)-1H-pyrazol-1-yl)-3-(cyanomethyl)azetidine-1-ylsulfonyl)glycinate]
< 10	< 10	N#CCC1(n2cc(-c3ncnc4[nH]ccc34)c(N)n2)CN(C(=O)N[C@H]2CC2(F)F)C1 [Example 20, (S)-3-(3-amino-4-(7H-pyrrolo[2,3-d]pyrimidin-4-yl)-1H-pyrazol-1-yl)-3-(cyanomethyl)-N-(2,2-difluorocyclopropyl)azetidine-1-formamide]
> 100	> 100	CCS(=O)(=O)N1CC(CC#N)(n2cc(-c3cc(Cl)cn4ncnc34)c(N)n2)C1 [Example 83, 2-(3-(3-amino-4-(6-chloro-[1,2,4]triazolo[1,5-a]pyridin-8-yl)-1H-pyrazol-1-yl)-1-(ethylsulfonyl)azetidine-3-yl)acetonitrile]
< 50	< 50	N#CCC1(n2cc(-c3ncnc4[nH]ccc34)c(N)n2)CN(C(=O)C2(F)CC2)C1 [Example 24, 2-(3-(3-amino-4-(7H-pyrrolo[2,3-d]pyrimidin-4-yl)-1H-pyrazol-1-yl)-1-(1-fluorocyclopropane-1-carbonyl)azetidine-3-yl)acetonitrile]
< 5	< 5	N#CCC1(n2cc(-c3ncnc4[nH]ccc34)c(N)n2)CN(S(=O)(=O)N2CC2)C1 [Example 47, 2-(3-(3-amino-4-(7H-pyrrolo[2,3-d]pyrimidin-4-yl)-1H-pyrazol-1-yl)-1-(aziridin-1-ylsulfonyl)azetidine-3-yl)acetonitrile]
< 10	< 10	N#CCC1(n2cc(-c3ncnc4[nH]ccc34)c(N)n2)CN(C(=O)NCC(F)(F)F)C1 [Example 11, 3-(3-amino-4-(7H-pyrrolo[2,3-d]pyrimidin-4-yl)-1H-pyrazol-1-yl)-3-(cyanomethyl)-N-(2,2,2-trifluoroethyl)azetidine-1-formamide]
< 10	< 50	COCCNS(=O)(=O)N1CC(CC#N)(n2cc(-c3ncnc4[nH]ccc34)c(N)n2)C1 [Example 48, 3-(3-amino-4-(7H-pyrrolo[2,3-d]pyrimidin-4-yl)-1H-pyrazol-1-yl)-3-(cyanomethyl)-N-(2-methoxyethyl)azetidine-1-sulfonamide]
< 50	< 50	N#CCC1(n2cc(-c3ncnc4[nH]ccc34)c(N)n2)CN(S(=O)(=O)NCCO)C1 [Example 44, 3-(3-amino-4-(7H-pyrrolo[2,3-d]pyrimidin-4-yl)-1H-pyrazol-1-yl)-3-(cyanomethyl)-N-(2-hydroxyethyl)azetidine-1-sulfonamide]
< 10	< 10	N#CCC1(n2cc(-c3ncnc4[nH]ccc34)c(N)n2)CN(C(=O)C2(C(F)(F)F)CC2)C1 [Example 25, 2-(3-(3-amino-4-(7H-pyrrolo[2,3-d]pyrimidin-4-yl)-1H-pyrazol-1-yl)-1-(1-(trifluoromethyl)cyclopropane-1-carbonyl)azetidine-3-yl)acetonitrile]

SMILES	IC50 (ROCK2) [nM]	IC50 (ROCK1) [nM]
N#CCC1(n2cc(-c3ncnc4[nH]ccc34)c(N)n2)CN(S(=O)(=O)NCCCl)C1 [Example 46, 3-(3-amino-4-(7H-pyrrolo[2,3-d]pyrimidin-4-yl)-1H-pyrazol-1-yl)-N-(2-chloroethyl)-3-(cyanomethyl)azetidine-1-sulfonamide]	< 5	< 10
